# Results: US20230250392A1, “MEDIA AND METHODS FOR ENHANCING THE SURVIVAL AND PROLIFERATION OF STEM CELLS” (STEMCELL TECHNOLOGIES CANADA INC., priority 2017, published 2023)
# Key:
# Assay type in all cases: cell-based, human
# [1] = tested on: H1, WLS-1C, and H9 hPSCs; assay: Example 13: cloning efficiency with detrimental fatty acids loaded onto a BSA sample; conditions: 300 μg/g loaded onto a specific BSA sample
# Protocol: In the experiment shown in FIG. 13, 300 μg/g of either arachidonic acid or α-linolenic acid were loaded onto a specific BSA sample and added to a culture comprising H1, WLS-1C, and H9 hPSCs.
# [2] = tested on: H1 and WLS-1C hPSCs; assay: Example 12: cloning efficiency with individual free fatty acids in the presence of a carrier; conditions: 600 μg free fatty acid per gram of carrier spiked into mTeSR1 plus 10 μM Y-27632
# Protocol: 12-well culture plates were coated with 0.5 mL of cloning matrix or extracellular matrix (1:25 dilution in […] Dilution Buffer) and placed at room temperature for 1 hour. The matrix was then aspirated and 1 mL of media (mTeSRTM1 or TeSRTM-E8TM supplemented with either 10 μM Y27632 or media comprising lipid-enriched albumin, GABA, pipecolic acid, lithium chloride, FGF, TGFβ and Y-27632 (hereafter termed cloning supplement)) was added to each well and the plate was placed at 37° C. for 1 hour. hPSC lines were dissociated to single cells and seeded into the pre-warmed plates at 25 cells/cm^2 and placed at 37° C. for two days. The cells were then fed with fresh media (mTeSRTM1 or TeSRTM-E8TM supplemented with either 10 μM Y-27632 or cloning supplement) and placed at 37° C. for two days. On day four the cells were then fed with 1 mL of mTeSRTM1 or TeSRTM-E8TM without additives and fed daily until day seven. Cells were then fixed using 4% paraformaldehyde and stained for alkaline phosphatase. Undifferentiated colonies were then counted and cloning efficiency was determined using the following calculation: (Number of undifferentiated colonies at day seven (per well)/Number of cells seeded at day zero (per well))×100. (Error bars represent standard deviation from three biological replicates). In this experiment, 600 μg of the shown free fatty acids were spiked into culture medium (mTeSRTM1 plus 10 μM Y-27632) per gram of carrier also spiked into the culture medium. Cloning efficiencies were calculated as described in Example 1, for example.
# [3] = tested on: WLS-1C, H1 and STiPS-F016 cells; assay: Example 8: cloning efficiency with lipid poor albumin loaded with one, two or three fatty acids; conditions: for cloning efficiency in comparison to the 3 fatty acid-loaded albumin: H1, WLS-1C, STiPS-F016, fatty acid loaded on lipid poor albumin at 600 μg per gram, final 6 ng/mL
# Protocol: In particular, each of the one or more fatty acids was incubated with albumin at a concentration of 600 μg of each fatty acid per gram of albumin. The product of such incubation was subsequently added to the culture medium at a final concentration of 6 ng/mL.
# [4] = tested on: WLS-1C and H1 cells; assay: Example 11: cloning efficiency with albumins of different suppliers with or without two free fatty acids; conditions: for cloning efficiency of albumin without the additional two free fatty acids: compared among suppliers' albumins; for cloning efficiency when albumin is provided along with two free fatty acids: versus the same albumin without added fatty acids
compound,measurement,setting,value
CCCCC/C=C\C/C=C\C/C=C\C/C=C\CCCC(=O)O [arachidonic acid],cloning efficiency of the tested BSA sample,[1],decreased the cloning efficiency
same,effect on survival and proliferation (cloning efficiency),[2],detrimental
CC(C)CCC[C@@H](C)[C@H]1CC[C@H]2[C@@H]3CC=C4C[C@@H](O)CC[C@]4(C)[C@H]3CC[C@]12C [cholesterol],effect on survival and proliferation (cloning efficiency),[2],helpful in enhancing the survival and proliferation
CCCCC/C=C\C/C=C\CCCCCCCC(=O)O [linoleic acid],cloning efficiency relative to control and oleic and/or palmitic acid,"[3]; WLS-1C and H1, only this fatty acid loaded on albumin at 600 μg per gram",reduce cloning efficiency
CCCCCCCCCCCCCC(=O)O [myristic acid],effect on survival and proliferation (cloning efficiency),[2],helpful in enhancing the survival and proliferation
CCCCCCCC/C=C\CCCCCCCC(=O)O [oleic acid],cloning efficiency in comparison to the 3 fatty acid-loaded albumin,[3],comparable cloning efficiencies
same,effect on survival and proliferation (cloning efficiency),[2],helpful in enhancing the survival and proliferation
CCCCCCCCCCCCCCCC(=O)O [palmitic acid],cloning efficiency in comparison to the 3 fatty acid-loaded albumin,[3],comparable cloning efficiencies
same,effect on survival and proliferation (cloning efficiency),[2],helpful in enhancing the survival and proliferation
CCCCCCCCCCCCCCCCCC(=O)O [stearic acid],effect on survival and proliferation (cloning efficiency),[2],helpful in enhancing the survival and proliferation
CC/C=C\C/C=C\C/C=C\CCCCCCCC(=O)O [α-linolenic acid],cloning efficiency of the tested BSA sample,[1],decreased the cloning efficiency
same,effect on survival and proliferation (cloning efficiency),[2],detrimental
"A1: BSA of Supplier A lot 1, already comprising 3000-7000 ug/g overall fatty acid",cloning efficiency of albumin without the additional two free fatty acids,[4],lowest cloning efficiencies
same,cloning efficiency when albumin is provided along with two free fatty acids,[4],not enhanced
"A2: BSA of Supplier A lot 2, already comprising 3000-7000 ug/g overall fatty acid",cloning efficiency of albumin without the additional two free fatty acids,[4],lowest cloning efficiencies
same,cloning efficiency when albumin is provided along with two free fatty acids,[4],not enhanced
